Assay results as given in patent publication US20070128217A1 (priority 2003, published 2007).

Experiments:
[1] = system: control sera (pooled serum of ten healthy LUMC hospital workers; commercial negative donor pooled serum from the Dutch bloodbank); format: binding, human; parameters: Binding of Control serum LUMC to linear peptides / Binding of Control serum Blood-bank to linear peptides / Binding of Control serum LUMC to looped peptides / Binding of Control Serum Blood-Bank to Looped peptides / Binding of Control serum LUMC to linear peptides of the protein M of SARS-CoV Urbani / Binding of Control serum Blood-bank to linear peptides of the protein M of SARS-CoV Urbani / Binding of Control serum LUMC to looped peptides of the protein M of SARS-CoV Urbani / Binding of Control Serum Blood-Bank to Looped peptides of the protein M of SARS-CoV Urbani: unit not given here
[2] = system: rabbit serum obtained by immunizing a rabbit with the SARS-CoV strain Frankfurt 1; format: binding; parameters: Binding of a rabbit serum to linear peptides / Binding of a rabbit serum to looped peptides / Rabbit serum linear peptides / Rabbit serum looped peptides / Binding of a rabbit serum to linear peptides of protein N of SARS-CoV Urbani (Rabbit serum linear peptides) / Binding of a rabbit serum to looped/cyclic peptides of protein N of SARS-CoV Urbani (Rabbit serum looped peptides): unit not given here
[3] = system: antibodies in sera from SARS patients (sera 1a, 1b, 2, 6, 37, 62, London, SARS-yellow, SARS-green); format: binding, human; parameters: Binding of serum 6 to linear peptides of protein X1 of SARS-CoV Urbani / Binding of serum 37 to linear peptides of protein X1 of SARS-CoV Urbani / Binding of serum 6 to looped/cyclic peptide (PEPSCAN-ELISA) / Binding of serum 37 to looped/cyclic peptide (PEPSCAN-ELISA) / Binding of serum 37 to looped/cyclic peptides of protein X1 of SARS-CoV Urbani / Binding of serum 6 to linear peptides of protein X2 / Binding of serum 37 to linear peptides of protein X2 / Binding of serum 37 to looped/cyclic peptides of protein X2 of SARS-CoV Urbani / Binding of serum 6 to linear peptides of protein M of SARS-CoV Urbani / Binding of serum 37 to linear peptides of protein M of SARS-CoV Urbani / Binding of serum 6 to looped/cyclic peptides of protein M of SARS-CoV Urbani / Binding of serum 37 to looped/cyclic peptides of protein M of SARS-CoV Urbani / Binding of serum 6 to linear peptides of protein X3 of SARS-CoV Urbani / Binding of serum 37 to linear peptides of protein X3 of SARS-CoV Urbani / Binding of serum 37 to looped/cyclic peptides of protein X3 of SARS-CoV Urbani / Binding of serum 6 to linear peptides of protein X4 of SARS-CoV Urbani / Binding of serum 37 to linear peptides of protein X4 of SARS-CoV Urbani / Binding of serum 37 to looped/cyclic peptides of protein X4 of SARS-CoV Urbani / Binding of serum 6 to linear peptides of protein X5 of SARS-CoV Urbani / Binding of serum 37 to linear peptides of protein X5 of SARS-CoV Urbani / Binding of serum 37 to looped/cyclic peptides of protein X5 of SARS-CoV Urbani / Binding of serum 6 to linear peptides of protein N of SARS-CoV Urbani / Binding of serum 37 to linear peptides of protein N of SARS-CoV Urbani / Binding of serum 6 to linear peptide (PEPSCAN-ELISA) / Binding of serum 1a to looped/cyclic peptides of protein N of SARS-CoV Urbani / Binding of serum 1b to looped/cyclic peptides of protein N of SARS-CoV Urbani / Binding of serum 2 to looped/cyclic peptides of protein N of SARS-CoV Urbani / Binding of serum 6 to looped/cyclic peptides of protein N of SARS-CoV Urbani / Binding of serum 37 to looped/cyclic peptides of protein N of SARS-CoV Urbani / Binding of serum 62 to looped/cyclic peptides of protein N of SARS-CoV Urbani / Binding of serum London to looped/cyclic peptides of protein N of SARS-CoV Urbani / Binding of serum SARS-green to looped/cyclic peptides of protein N of SARS-CoV Urbani: unit not given here
[4] = system: recombinant human anti-SARS-CoV antibody 03-018; format: binding; parameters: Binding of antibody 03-018 to linear peptides of the N protein of SARS-CoV Urbani / Binding of antibody 03-018 to looped/cyclic peptides of the N protein of SARS-CoV Urbani: unit not given here

Row | Sequence | Binding of a rabbit serum to linear peptides of protein N of SARS-CoV Urbani (Rabbit serum linear peptides) [2] | Binding of a rabbit serum to looped/cyclic peptides of protein N of SARS-CoV Urbani (Rabbit serum looped peptides) [2] | Binding of serum 1a to linear peptides of protein N of SARS-CoV Urbani [3] | Binding of serum 1a to looped/cyclic peptides of protein N of SARS-CoV Urbani [3] | Binding of serum 1b to linear peptides of protein N of SARS-CoV Urbani [3] | Binding of serum 1b to looped/cyclic peptides of protein N of SARS-CoV Urbani [3] | Binding of serum 2 to linear peptides of protein N of SARS-CoV Urbani [3] | Binding of serum 2 to looped/cyclic peptides of protein N of SARS-CoV Urbani [3] | Binding of serum 6 to linear peptides of protein N of SARS-CoV Urbani [3] | Binding of serum 6 to looped/cyclic peptides of protein N of SARS-CoV Urbani [3] | Binding of serum 37 to linear peptides of protein N of SARS-CoV Urbani [3] | Binding of serum 37 to looped/cyclic peptides of protein N of SARS-CoV Urbani [3] | Binding of serum 62 to linear peptides of protein N of SARS-CoV Urbani [3] | Binding of serum 62 to looped/cyclic peptides of protein N of SARS-CoV Urbani [3] | Binding of serum London to linear peptides of protein N of SARS-CoV Urbani [3] | Binding of serum London to looped/cyclic peptides of protein N of SARS-CoV Urbani [3] | Binding of serum SARS-green to linear peptides of protein N of SARS-CoV Urbani [3] | Binding of serum SARS-green to looped/cyclic peptides of protein N of SARS-CoV Urbani [3] | Binding of serum SARS-yellow to linear peptides of protein N of SARS-CoV Urbani [3] | Binding of serum SARS-yellow to looped/cyclic peptides of protein N of SARS-CoV Urbani [3] | other results
1 | ASLPYGANKEGIVWV | 0.2 | 0.2 | 0.2 | 0.4 | 0.1 | 0.3 | 0.2 | 0.7 | 0.1 | 0.3 | 0.6 | 1.0 | 0.5 | 1.0 | 0.4 | 0.6 | 0.1 | 0.8 | 0.5 | 0.3 | Binding of Control Serum Blood-Bank to Looped peptides [1]: 0.9; Binding of Control serum Blood-bank to linear peptides [1]: 0.7; Binding of Control serum LUMC to linear peptides [1]: 0.6; Binding of Control serum LUMC to looped peptides [1]: 0.8; Binding of antibody 03-018 to linear peptides of the N protein of SARS-CoV Urbani [4]: 0.1; Binding of antibody 03-018 to looped/cyclic peptides of the N protein of SARS-CoV Urbani [4]: 0.3
2 | YFYYLGTGPEASLPY | 0.1 | 0.6 | 0.3 | 0.4 | 0.1 | 0.3 | 0.3 | 0.5 | 0.2 | 0.3 | 0.7 | 0.9 | 0.8 | 0.7 | 0.4 | 0.4 | 0.0 | 0.4 | 0.7 | 0.6 | Binding of Control Serum Blood-Bank to Looped peptides [1]: 0.7; Binding of Control serum Blood-bank to linear peptides [1]: 0.7; Binding of Control serum LUMC to linear peptides [1]: 0.6; Binding of Control serum LUMC to looped peptides [1]: 0.8; Binding of antibody 03-018 to linear peptides of the N protein of SARS-CoV Urbani [4]: 0.1; Binding of antibody 03-018 to looped/cyclic peptides of the N protein of SARS-CoV Urbani [4]: 0.2
3 | RRATRRVRGGDGKMK | 0.6 | 0.1 | 0.2 | 0.2 | 0.1 | 0.1 | 0.3 | 0.1 | 0.3 | 0.1 | 0.8 | 0.4 | 0.7 | 0.3 | 0.5 | 0.2 | 0.3 | 0.0 | 0.6 | 0.2 | Binding of Control Serum Blood-Bank to Looped peptides [1]: 0.4; Binding of Control serum Blood-bank to linear peptides [1]: 0.8; Binding of Control serum LUMC to linear peptides [1]: 0.8; Binding of Control serum LUMC to looped peptides [1]: 0.3; Binding of antibody 03-018 to linear peptides of the N protein of SARS-CoV Urbani [4]: 0.1; Binding of antibody 03-018 to looped/cyclic peptides of the N protein of SARS-CoV Urbani [4]: 0.2
4 | GAIKLDDKDPQFKDN | 0.1 | 0.3 | 0.2 | 0.3 | 0.1 | 0.2 | 0.2 | 0.4 | 0.2 | 0.2 | 0.7 | 0.5 | 0.9 | 0.5 | 0.6 | 0.4 | 0.5 | 0.8 | 0.7 | 0.5 | Control Serum Blood-Bank Looped peptides [1]: 0.6; Control serum Blood-bank linear peptides [1]: 0.7; Control serum LUMC linear peptides [1]: 0.7; Control serum LUMC looped peptides [1]: 0.5; Binding of antibody 03-018 to linear peptides of the N protein of SARS-CoV Urbani [4]: 0.1; Binding of antibody 03-018 to looped/cyclic peptides of the N protein of SARS-CoV Urbani [4]: 0.2
